US10781209B2, “1H-pyrrolo[2,3-c]pyridin-7(6H)-ones and pyrazolo[3,4-c]pyridin-7(6H)-ones as inhibitors of BET proteins” (Incyte Corporation, priority 2014, dated 2020)

Test system: KMS.12.BM cells
Test: KMS.12.BM cell viability assay (Cell Titer-GLO, ATP quantitation)
Type: cell-based
Settings: 72 h, human myeloma cell line, 3 days, concentration required for 50% cell death
Description: KMS.12.BM cell line (human myeloma) was purchased from JCRB (Osaka, Japan) and maintained in RPMI with 10% FBS culture medium. To measure the cytotoxic activity of the compounds through ATP quantitation, the KMS.12.BM cells are plated in the RPMI culture medium at 5000 cells/well/per 100 μL into a 96-well polystyrene clear black tissue culture plate (Greiner-bio-one through VWR, NJ), in the presence or absence of a concentration range of test compounds. After 3 days, […] Cell Titer-GLO Luminescent (Promega, Madison, Wis.) cell culture agent is added to each well for 10 minutes at room temperature to stabilize the luminescent signal. This determines the number of viable cells in culture based on quantitation of the ATP present, which signals the presence of metabolically active cells. Luminescence is measured with the Top Count 384 (Packard Bioscience through Perkin Elmer, Boston, Mass.). Compound inhibition is determined relative to cells cultured with no drug and the IC50 is reported as the compound concentration required for 50% cell death.

Cn1cc(-c2cccc3c2OC(c2ccccn2)C(=O)N3)c2cc[nH]c2c1=O (stereo not shown) [Example 5, 8-(6-methyl-7-oxo-6,7-dihydro-1H-pyrrolo[2,3-c]pyridin-4-yl)-2-pyridin-2-yl-2H-1,4-benzoxazin-3(4H)-one 2,2,2-trifluoroacetate] was tested, and the IC50 was ≤ 1000 nM.
